# Data as given in patent US11185542B2, “Uses of dopamine beta-hydroxylase (DBH) inhibitors and serotonin receptor (5-HT) antagonists for the treatment of cancer” (Jiangsu Yahong Meditech Co., Ltd., priority 2016, dated 2021).
# Tests used:
# [1] = tested on: H22 murine hepatic cancer xenograft; assay: In vivo tumor growth, H22 murine hepatic cancer xenograft model (Example 4); design: species or system Mouse (Mus Musculus)
# Description: (§1) Experiments using the murine H22, CT-26 and EMT-6 xenograft models were performed as described below.
# (§2) Cells were cultured in RPMI-1640 medium supplemented with 10% FBS at 37° C. in an atmosphere of 5% CO2 in air. The tumor cells were routinely subcultured three times weekly. The cells that grew in an exponential growth phase were harvested and counted for tumor inoculation.
# (§3) Mice (female, 6-8 weeks old) were inoculated subcutaneously at the right flank with the tumor cells (H22, EMT-6, or CT-26) in 0.1 mL PBS for tumor development. When the tumor volume reached approximately 60-80 mm^3, the mice were grouped randomly according to the animal body weight and tumor volume. Each group had 5-8 tumor-bearing mice.
# (§4) The major endpoint was to determine if tumor growth could be delayed or mice could be cured. Tumor volume was measured three times weekly in two dimensions using a caliper, and the volume was expressed in mm^3 using the formula: V=0.5 a×b^2, where a and b are the long and short diameters of the tumor, respectively. The T/C value (in percent) was an indication of antitumor effectiveness, where T and C were the mean volume of the treated and control groups, respectively, on a given day. The T-C value was calculated according to TV. T-C was calculated with T as the median time (in days) required for the treatment group tumors to reach a predetermined size (e.g., TV as 1000 mm^3), and C as the median time (in days) for the control group tumors to reach the same size. The body weights were measured and recorded at the same time to observe the toxicity of the compounds. The animals were sacrificed at the termination of the study.
# (§5) Summary statistics, including mean and the standard error of the mean (SEM), are provided for the tumor volume of each group at each time point. A two-way analysis of variance (ANOVA) was performed to compare body weight, tumor volume and tumor volume change. A one-way ANOVA was performed to compare tumor weight. All data were analyzed using GraphPad Prism 5. p<0.05 was considered to be statistically significant.
# The anti-cancer activity of amperozide and nepicastat was evaluated in a H22 murine hepatic cancer xenograft model according to the experimental procedure described in Example 2. Anti-cancer activity was evaluated by measuring changes in tumor volume.
# [2] = tested on: H22 murine hepatocarcinoma cell line; assay: In vitro cell proliferation assay (CellTiter-Glo) in H22 murine hepatocarcinoma cell line; format: cell-based; conditions: for anti-proliferative effect on H22 cell line: 1 μM and 0.1, in words; for viability at 0.1 µM / viability at 1 µM: H22, 72 h; for viability at 0.1 µM: read-out: Cell viability (%), 0.1 μM, 72 h, H22 cells; for viability at 1 µM: read-out: Cell viability (%), 1 μM, 72 h, H22 cells
# Description: Methods: • (1) Cells were cultured in RPMI-1640 medium supplemented with 10% FBS, 100 U/ml penicillin, and […] streptomycin at 37° C. and 5% CO2 atmosphere. […] The anti-proliferative activity of amperozide, nepicastat, and paclitaxel was tested in the H22 murine hepatocarcinoma cell line according to the experimental procedure described in Example 1.
# [3] = clinical dosage of amperozide 10 mg/day; read-out: plasma maximal concentration (Cmax); cited from earlier work
# [4] = tested on: H22 murine hepatic cancer xenograft; assay: In vivo tumor growth, H22 murine hepatic cancer xenograft model, compared with anti-PD-1 mAb (Example 5); design: species or system Mouse (Mus Musculus); conditions: p.o.; for Tumor Volume (mm^3): QD x 20 days; for T/C (%) / TGI (%) tumor growth inhibition: QD
# Description: as §1, §2, §3, §4, §5
# The anti-cancer activity of nepicastat, etamicastat and anti-PD-1 monoclonal antibody (mAb) was evaluated in a H22 murine hepatic cancer xenograft model according to the experimental procedure described in Example 2.
compound,measurement,setting,value
"CCNC(=O)N1CCN(CCCC(c2ccc(F)cc2)c2ccc(F)cc2)CC1 [Amperozide, amperozide]",T-C (days) (Reach 1000 mm^3),[1]; Amperozide 2 mg/kg,2 days
same,Tumor Volume,"[1]; Amperozide 2 mg/kg, day 5",80 ± 9 mm^3
same,Tumor Volume,"[1]; Amperozide 2 mg/kg, day 7",166 ± 19 mm^3
same,Tumor Volume,"[1]; Amperozide 2 mg/kg, day 9",355 ± 36 mm^3
same,Tumor Volume,"[1]; Amperozide 2 mg/kg, day 12",576 ± 48 mm^3
same,Tumor Volume,"[1]; Amperozide 2 mg/kg, day 14",806 ± 31 mm^3
same,Tumor Volume,"[1]; Amperozide 2 mg/kg, day 16","1,219 ± 39 mm^3"
same,T/C (%),"[1]; Amperozide 2 mg/kg, day 19",64.4%
same,TGI (%) tumor growth inhibition,"[1]; Amperozide 2 mg/kg, day 19",35.6%
same,Tumor Volume,"[1]; Amperozide 2 mg/kg, day 19","1,948 ± 158 mm^3"
same,Tumor Volume,"[1]; Amperozide 2 mg/kg, day 19, listed as amperozide",1948 mm^3
same,T-C (days) (Reach 1000 mm^3),[1]; Amperozide 6 mg/kg,1 days
same,Tumor Volume,"[1]; Amperozide 6 mg/kg, day 5",80 ± 9 mm^3
same,Tumor Volume,"[1]; Amperozide 6 mg/kg, day 7",174 ± 26 mm^3
same,Tumor Volume,"[1]; Amperozide 6 mg/kg, day 9",367 ± 51 mm^3
same,Tumor Volume,"[1]; Amperozide 6 mg/kg, day 12",602 ± 77 mm^3
same,Tumor Volume,"[1]; Amperozide 6 mg/kg, day 14","1,004 ± 75 mm^3"
same,Tumor Volume,"[1]; Amperozide 6 mg/kg, day 16","1,625 ± 101 mm^3"
same,T/C (%),"[1]; Amperozide 6 mg/kg, day 19",95.9%
same,TGI (%) tumor growth inhibition,"[1]; Amperozide 6 mg/kg, day 19",4.1%
same,Tumor Volume,"[1]; Amperozide 6 mg/kg, day 19","2,903 ± 315 mm^3"
same,anti-proliferative effect on H22 cell line,[2],did not show any significant anti-proliferative effects
same,viability at 0.1 µM,[2]; Mus musculus,100%
same,viability at 1 µM,[2]; Mus musculus,95.1%
same,IC50,"[2]; Mus musculus, calculated from FIG. 1, read-out: IC50 in H22 murine hepatocarcinoma cells proliferation",38.8 µM
same,Cmax,[3],~100 nM
"NCCc1c[nH]c(=S)n1[C@H]1COc2c(F)cc(F)cc2C1 [Etamicastat, etamicastat]",Tumor Volume (mm^3),"[4]; Etamicastat 80 mg/kg, day 3",56.40 ± 4.21 mm^3
same,Tumor Volume (mm^3),"[4]; Etamicastat 80 mg/kg, day 6",142.74 ± 14.75 mm^3
same,Tumor Volume (mm^3),"[4]; Etamicastat 80 mg/kg, day 9",325.41 ± 39.55 mm^3
same,Tumor Volume (mm^3),"[4]; Etamicastat 80 mg/kg, day 13",437.62 ± 48.77 mm^3
same,Tumor Volume (mm^3),"[4]; Etamicastat 80 mg/kg, day 16",645.29 ± 50.41 mm^3
same,Tumor Volume (mm^3),"[4]; Etamicastat 80 mg/kg, day 19",892.56 ± 131.83 mm^3
same,Tumor Volume (mm^3),"[4]; Etamicastat 80 mg/kg, day 22",1210.52 ± 197.23 mm^3
same,Tumor Volume (mm^3),"[4]; Etamicastat 80 mg/kg, day 22, listed as etamicastat","1,210.52 mm^3"
same,T/C (%),"[4]; Etamicastat 80 mg/kg, day 22",70.42%
same,TGI (%) tumor growth inhibition,"[4]; Etamicastat 80 mg/kg, day 22",29.58%
same,Tumor Volume (mm^3),"[4]; Etamicastat 160 mg/kg, day 3",56.42 ± 3.25 mm^3
same,Tumor Volume (mm^3),"[4]; Etamicastat 160 mg/kg, day 6",134.64 ± 14.18 mm^3
same,Tumor Volume (mm^3),"[4]; Etamicastat 160 mg/kg, day 9",270.71 ± 33.96 mm^3
same,Tumor Volume (mm^3),"[4]; Etamicastat 160 mg/kg, day 13",513.74 ± 103.91 mm^3
same,Tumor Volume (mm^3),"[4]; Etamicastat 160 mg/kg, day 16",825.29 ± 198.51 mm^3
same,Tumor Volume (mm^3),"[4]; Etamicastat 160 mg/kg, day 19",1167.51 ± 300.84 mm^3
same,Tumor Volume (mm^3),"[4]; Etamicastat 160 mg/kg, day 22",1309.12 ± 492.02 mm^3
same,Tumor Volume (mm^3),"[4]; Etamicastat 160 mg/kg, day 22, listed as etamicastat","1,309.12 mm^3"
same,T/C (%),"[4]; Etamicastat 160 mg/kg, day 22",76.16%
same,TGI (%) tumor growth inhibition,"[4]; Etamicastat 160 mg/kg, day 22",23.84%
CC(=O)O[C@H]1C(=O)[C@@]2(C)[C@H]([C@H](OC(=O)c3ccccc3)[C@]3(O)C[C@H](OC(=O)[C@H](O)[C@@H](NC(=O)c4ccccc4)c4ccccc4)C(C)=C1C3(C)C)[C@]1(OC(C)=O)CO[C@@H]1C[C@@H]2O [Paclitaxel],T-C (days) (Reach 1000 mm^3),[1]; Paclitaxel 15 mg/kg,2 days
same,Tumor Volume,"[1]; Paclitaxel 15 mg/kg, day 5",80 ± 9 mm^3
same,Tumor Volume,"[1]; Paclitaxel 15 mg/kg, day 7",140 ± 17 mm^3
same,Tumor Volume,"[1]; Paclitaxel 15 mg/kg, day 9",270 ± 48 mm^3
same,Tumor Volume,"[1]; Paclitaxel 15 mg/kg, day 12",435 ± 60 mm^3
same,Tumor Volume,"[1]; Paclitaxel 15 mg/kg, day 14",722 ± 105 mm^3
same,Tumor Volume,"[1]; Paclitaxel 15 mg/kg, day 16","1,188 ± 206 mm^3"
same,T/C (%),"[1]; Paclitaxel 15 mg/kg, day 19",65.5%
same,TGI (%) tumor growth inhibition,"[1]; Paclitaxel 15 mg/kg, day 19",34.5%
same,Tumor Volume,"[1]; Paclitaxel 15 mg/kg, day 19","1,982 ± 327 mm^3"
same,Tumor Volume,"[1]; Paclitaxel 15 mg/kg, day 19, listed as paclitaxel",1982 mm^3
same,anti-proliferative effect on H22 cell line,[2],strong inhibition effect
same,viability at 0.1 µM,[2]; Mus musculus,28.4%
same,viability at 1 µM,[2]; Mus musculus,20.8%
